# Test results from patent publication US20230357722A1, “METHODS FOR IDENTIFYING MODULATORS OF NATURAL KILLER CELL INTERACTIONS” (The Johns Hopkins University, priority 2020, published 2023).
# Key:
# Format in all cases: cell-based, mouse
# [1] = test system: tumor-exposed NK cell-MMTV-PyMT tumor cluster co-culture; experiment: teNK cell-MMTV-PyMT tumor cluster co-culture colony formation assay; details: teNK cells pretreated with DNMT inhibitor at 1 μM for 24 hours before co-culture; FIG. 5C
# Description: The capacity of candidate immunotherapies to reverse the effect of teNK cells on colony formation was investigated. Anti-PD-1 therapy has been reported to restore the function of anergic NK cells (Hsu J, et al. J Clin Invest. 2018; 128(10):4654-68). […] Targeted receptors were next identified in the RNA expression analysis, specifically TIGIT and KLRG1. TIGIT is an emerging immune checkpoint on NK cells and T cells and anti-TIGIT therapies are in clinical trials (Zhang Q, et al. Blockade of the checkpoint receptor TIGIT prevents NK cell exhaustion and elicits potent anti-tumor immunity. Nat Immunol. 2018; 19(7):723-32). KLRG1, a marker of senescent NK cells and T cells and a recently reported inhibitor of NK cell function (Muller-Durovic B, et al. J Immunol. 2016; 197(7):2891-9), was highly expressed by teNK cells. […] The broad gene expression differences between hNK and teNK cells provided the motivation to identify epigenetic regulators of NK cell state. […] Experiments were then carried out seeking to validate the functional significance of these findings in the co-culture models. […] It was assessed whether the combination of FDA approved DNA methyltransferase inhibitors and anti-TIGIT or anti-KLRG1 would prevent colonies from being formed in co-culture. […]
# TIGIT = experiment: RT-qPCR of TIGIT in teNK cells treated with DNMT inhibitors; details: teNK cells pretreated with DNMT inhibitor; FIG. 10F
# Description: (§1) Natural killer cell isolation. Primary splenocytes were isolated by mechanical dissociation from spleens of wild-type FVB/n, MMTV-PyMT, or C3(1)-Tag mice, or from the tumors of MMTV-PyMT mice. NK cells isolated from WT FVB/n mice are defined as healthy NK (hNK) cells and those isolated from tumor bearing mice are defined as tumor-exposed NK (teNK) cells. NK cells isolated from MMTV-PyMT tumors are defined as tumor-infiltrating NK cells. The NK cells were purified from isolated splenocytes using EasySep Mouse NK Cell Isolation Kit per the manufacturer's protocol (#19855; Stemcell Technologies). The isolated cells were then positively selected by FACS by gating on CD49b+/CD3− cells and CD45+/CD49b+/CD3− for NK cells isolated from tumors. NK cells were cultured in media at 37° C. containing 200 U/ml recombinant mouse IL-2 (#402-ML-100, R&D Systems), 5 ng/ml recombinant mouse IL-15 (#447-ML-010, R&D Systems) or 5 ng/ml recombinant mouse IL-I5:IL-15R complex (#14-8152-62, Thermo Fisher) for 16 h before use in assays. […]
# (§2) RNA Extraction and Quantitative PCR. […] Quantitative PCR was conducted using the SsoAdvanced Universal SYBR Green Supermix (BioRad #1725271) with 500 pg cDNA and 500 nM primers per reaction. […] Target gene expression values were normalized to GAPDH expression and fold change was calculated as 2-ΔΔCt. […]
# KLRG1 = experiment: RT-qPCR of KLRG1 in teNK cells treated with DNMT inhibitors; details: teNK cells pretreated with DNMT inhibitor; FIG. 10F
# Description: as §1, §2
smiles,measurement,setting,value
Nc1ncn([C@@H]2O[C@H](CO)[C@@H](O)[C@H]2O)c(=O)n1 [azacitidine],colony formation (normalized colony count),[1],neutralized the effect of teNK cells in co-culture
same,gene expression of TIGIT by qPCR,TIGIT,reduced gene expression of TIGIT
same,gene expression of KLRG1 by qPCR,KLRG1,reduced gene expression of TIGIT and KLRG1
